Experimental data as given in patent publication US11590089B2, “Beta-2 selective adrenergic receptor agonists” (The Board of Trustees of the Leland Stanford Junior …, priority 2017, dated 2023).
Structures can show the parent of a compound that is named as a salt. Where two headings read alike, the source gives them in different places.

What was measured:
[1] = target: T1, β2-AR (Homo sapiens, UniProt P07550); test: β-arrestin-2 recruitment assay at β2-AR; assay type: cell-based; conditions: for EC50: ranges from screening experiments with a low number of repeats; for β-arrestin-2 recruitment β2-AR Emax: relative to norepinephrine
Target sequence in this assay (P07550 whole entry): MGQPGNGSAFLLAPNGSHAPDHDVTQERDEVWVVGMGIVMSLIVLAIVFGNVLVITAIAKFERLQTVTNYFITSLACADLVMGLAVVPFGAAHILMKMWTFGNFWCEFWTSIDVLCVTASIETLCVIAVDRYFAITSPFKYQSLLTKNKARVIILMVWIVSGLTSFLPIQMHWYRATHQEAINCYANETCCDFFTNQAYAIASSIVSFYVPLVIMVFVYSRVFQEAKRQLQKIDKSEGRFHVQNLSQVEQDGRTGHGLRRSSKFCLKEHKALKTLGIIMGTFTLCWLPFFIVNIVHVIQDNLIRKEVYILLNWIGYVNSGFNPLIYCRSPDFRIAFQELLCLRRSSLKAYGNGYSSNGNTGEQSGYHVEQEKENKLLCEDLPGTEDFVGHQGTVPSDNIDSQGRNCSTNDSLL
Target sequence in this assay (P32121 whole entry partner): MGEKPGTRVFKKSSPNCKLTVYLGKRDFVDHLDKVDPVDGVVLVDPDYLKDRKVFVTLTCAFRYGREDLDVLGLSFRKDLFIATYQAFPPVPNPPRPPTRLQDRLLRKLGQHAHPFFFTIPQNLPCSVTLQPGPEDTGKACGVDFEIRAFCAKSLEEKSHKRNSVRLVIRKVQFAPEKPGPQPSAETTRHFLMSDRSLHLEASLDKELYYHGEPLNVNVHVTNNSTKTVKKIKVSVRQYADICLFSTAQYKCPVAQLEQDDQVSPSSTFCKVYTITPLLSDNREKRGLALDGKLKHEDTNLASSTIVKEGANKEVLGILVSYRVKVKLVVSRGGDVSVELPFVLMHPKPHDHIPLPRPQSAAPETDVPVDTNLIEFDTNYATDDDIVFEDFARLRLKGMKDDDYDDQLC

[2] = target: T2, β1-AR (Homo sapiens, UniProt P08588); test: radioligand binding assay, β1-AR, [3H]CGP12177; conditions: values given as a range are from screening experiments with a low number of repeats
Procedure: (§1) The binding affinities of exemplary compounds of interest at β1AR and β2AR were evaluated in a binding assay.
Target sequence in this assay (P08588 whole entry): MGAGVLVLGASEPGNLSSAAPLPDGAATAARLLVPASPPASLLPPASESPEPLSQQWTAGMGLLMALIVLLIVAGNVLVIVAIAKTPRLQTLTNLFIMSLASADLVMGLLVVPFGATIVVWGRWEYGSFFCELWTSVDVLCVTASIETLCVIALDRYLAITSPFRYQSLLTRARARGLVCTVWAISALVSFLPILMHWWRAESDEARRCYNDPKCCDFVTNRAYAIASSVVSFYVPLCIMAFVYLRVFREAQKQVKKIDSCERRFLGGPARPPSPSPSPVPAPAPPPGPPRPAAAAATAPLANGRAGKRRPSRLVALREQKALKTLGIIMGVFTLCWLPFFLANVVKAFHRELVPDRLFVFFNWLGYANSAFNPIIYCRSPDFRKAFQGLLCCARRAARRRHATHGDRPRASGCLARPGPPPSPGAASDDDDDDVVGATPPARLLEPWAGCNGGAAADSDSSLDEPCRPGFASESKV

[3] = target: T1, β2-AR; test: radioligand binding assay, β2-AR, [3H]CGP12177
Procedure: as §1
Target sequence in this assay (P07550 whole entry): as the sequence (P07550 whole entry) above

[4] = target: T2, β1-AR; test: β-arrestin-2 recruitment assay at β1-AR; assay type: cell-based; conditions: relative to norepinephrine
Target sequence in this assay (P08588 whole entry): as the sequence (P08588 whole entry) above
Target sequence in this assay (P32121 whole entry partner): as the sequence (P32121 whole entry partner) above

[5] = n.d. = could not be determined because of lack of activity, read-out: β-arrestin-2 recruitment β2-AR EC50
[6] = radioligand [3H]CGP12177, read-out: Ki β1-AR [3H]CGP12177
[7] = radioligand [3H]CGP12177, values given as a range are from screening experiments with a low number of repeats, read-out: Ki β2-AR [3H]CGP12177
[8] = β-arrestin-2 recruitment β2-AR EC50, n.d. = could not be determined because of lack of activity
[9] = Ki β1-AR [3H]CGP12177, radioligand [3H]CGP12177

| Structure (SMILES) | EC50 [1, 5] [µM] | β-arrestin-2 recruitment β2-AR Emax [1] [% norepinephrine] | Ki [2, 6] [µM] | Ki [3, 7] [µM] | EC50 [1, 8] [µM] | Ki [2, 9] [µM] | Ki ([3]; Ki β2-AR [3H]CGP12177) [µM] | β-arrestin-2 recruitment β1-AR Emax [4] [% norepinephrine] |
| --- | --- | --- | --- | --- | --- | --- | --- | --- |
| O=C(O)C(F)(F)F.Oc1ccc2c(c1O)CC[C@@H](NC1CCCC1)[C@@H]2O [JS 3-159, (1R,2R)-6-(Cyclopentylamino)-5,6,7,8-tetrahydronaphthalene-1,2,5-triol trifluoroacetate] | 0.018 | 97 | 7.1 | 0.025 | – | – | – | – |
| CC(C)N[C@H]1CCc2cc(O)c(O)cc2[C@H]1O (relative stereo) [JS 3-71, cis-2-(isopropylamino)-1,2,3,4-tetrahydronaphthalene-1,6,7-triol trifluoroacetate] | – | – | > 50 | > 50 | – | – | – | – |
| CC(C)N[C@@H]1CCc2c(ccc(O)c2O)[C@@H]1O [JS 3-99] | – | 100 | – | – | 1.2 | 49 | 1.9 | – |
| O=C(O)C(F)(F)F.Oc1ccc2c(c1O)CC[C@H](NC1CCCC1)[C@H]2O [JS 3-51, (1 S,2S)-6-(cyclopentylamino)-5,6,7,8-tetrahydronaphthalene-1,2,5-triol trifluoroacetate] | 0.12 | 93 | 27 | 0.24 | – | – | – | – |
| CNC1CCc2cc(O)c(O)cc2C1 (racemic) [AS LM31] | 12 | 22 | 44 | 80 | – | – | – | <5 |
| Oc1ccc2c(c1O)CC[C@@H](NC1CCCC1)[C@H]2O [JS 3-65, (1 S,2R)-6-(Cyclopentylamino)-5,6,7,8-tetrahydronaphthalene-1,2,5-triol trifluoroacetate] | – | – | > 50 | 2.5 | – | – | – | – |
| NC[C@H](O)c1ccc(O)c(O)c1 [noradrenaline, reference compound] | – | 100 | – | – | – | – | – | 100 |
| CC(C)N[C@H]1CCc2c(ccc(O)c2O)[C@@H]1O [JS 3-97] | – | – | – | – | – | > 50 | 0.37 | – |
| NC1CCc2c(ccc(O)c2O)C1 (single isomer, unassigned) [AS LM27] | 2.1 | 84 | 46 | 7.6 | – | – | – | <5 |
| CC(C)N[C@H]1CCc2c(ccc(O)c2O)[C@H]1O [AS424B, (R,S)-1,5,6-trihydroxy-N-isopropyl-1,2,3,4-tetrahydronaphthalen-2-aminium TFA] | – | 91 | – | – | 0.35 | 24 | 0.45 | – |
| N[C@H]1CCc2cc(O)c(O)cc2C1 [AS LM15] | – | <5 | 31 | – | – | – | – | <5 |
| CNC1CCc2c(ccc(O)c2O)C1 (racemic) [AS LM33] | 2.1 | 125 | 90 | 46 | – | – | – | <10 |
| N[C@@H]1CCc2cc(O)c(O)cc2C1 [AS LM16] | – | <5 | 83 | 76 | – | – | – | <5 |
| Oc1ccc2c(c1O)CC[C@H](NC1CCCC1)[C@@H]2O [JS 3-55, (1R,2S)-6-(cyclopentylamino)-5,6,7,8-tetrahydronaphthalene-1,2,5-triol trifluoroacetate] | – | – | > 50 | > 20 | – | – | – | – |
| CC(C)N[C@@H]1CCc2cc(O)c(O)cc2[C@H]1O (relative stereo) [JS 3-89, trans-2-(Isopropylamino)-1,2,3,4-tetrahydronaphthalene-1,6,7-triol trifluoroacetate] | – | – | > 50 | > 50 | – | – | – | – |
| NC1CCc2c(ccc(O)c2O)C1 (single isomer, unassigned) [AS LM28] | 11 | 77 | > 100 | 29 | – | – | – | <10 |
